Test results from US20240368139A1, “NOVEL MODULATORS OF EHMT1 AND EHMT2 AND THERAPEUTIC USE THEREOF” (Tango Therapeutics, Inc., priority 2021, published 2024).

Tests used:
[1] = target: T1, human EHMT2 913-1193 (Homo sapiens, UniProt Q96KQ7); assay: EHMT2 enzyme assay on histone peptide substrate (3H-SAM SPA); conditions: EHMT2 IC50, recombinant human EHMT2 913-1193, histone peptide substrate
T1 sequence (Q96KQ7 913-1193): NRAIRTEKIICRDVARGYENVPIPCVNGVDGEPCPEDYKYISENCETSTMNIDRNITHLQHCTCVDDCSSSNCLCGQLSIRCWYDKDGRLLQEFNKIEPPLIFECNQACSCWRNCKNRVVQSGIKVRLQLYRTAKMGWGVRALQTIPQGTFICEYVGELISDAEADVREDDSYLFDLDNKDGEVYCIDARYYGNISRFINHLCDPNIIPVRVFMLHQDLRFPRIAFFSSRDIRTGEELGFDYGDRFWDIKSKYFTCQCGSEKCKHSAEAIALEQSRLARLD

[2] = target: T2, human EHMT1 982-1266 (Homo sapiens, UniProt Q9H9B1); assay: EHMT1 enzyme assay on histone peptide substrate (3H-SAM SPA); conditions: EHMT1 IC50, recombinant human EHMT1 982-1266, histone peptide substrate
T2 sequence (Q9H9B1 982-1266): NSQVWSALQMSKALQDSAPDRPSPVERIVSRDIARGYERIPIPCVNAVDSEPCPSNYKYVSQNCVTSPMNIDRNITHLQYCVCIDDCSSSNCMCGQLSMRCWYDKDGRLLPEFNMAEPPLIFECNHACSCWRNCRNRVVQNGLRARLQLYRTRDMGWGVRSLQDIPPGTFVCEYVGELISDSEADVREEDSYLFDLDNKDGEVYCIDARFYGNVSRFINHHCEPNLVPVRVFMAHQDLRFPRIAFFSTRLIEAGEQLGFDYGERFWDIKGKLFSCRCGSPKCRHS

[3] = target: hERG potassium channels (Homo sapiens, UniProt Q12809); assay: In vitro hERG assay (SyncroPatch whole-cell recording); conditions: hERG IC50, SyncroPatch, room temperature
Sequence of hERG potassium channels (Q12809 whole entry): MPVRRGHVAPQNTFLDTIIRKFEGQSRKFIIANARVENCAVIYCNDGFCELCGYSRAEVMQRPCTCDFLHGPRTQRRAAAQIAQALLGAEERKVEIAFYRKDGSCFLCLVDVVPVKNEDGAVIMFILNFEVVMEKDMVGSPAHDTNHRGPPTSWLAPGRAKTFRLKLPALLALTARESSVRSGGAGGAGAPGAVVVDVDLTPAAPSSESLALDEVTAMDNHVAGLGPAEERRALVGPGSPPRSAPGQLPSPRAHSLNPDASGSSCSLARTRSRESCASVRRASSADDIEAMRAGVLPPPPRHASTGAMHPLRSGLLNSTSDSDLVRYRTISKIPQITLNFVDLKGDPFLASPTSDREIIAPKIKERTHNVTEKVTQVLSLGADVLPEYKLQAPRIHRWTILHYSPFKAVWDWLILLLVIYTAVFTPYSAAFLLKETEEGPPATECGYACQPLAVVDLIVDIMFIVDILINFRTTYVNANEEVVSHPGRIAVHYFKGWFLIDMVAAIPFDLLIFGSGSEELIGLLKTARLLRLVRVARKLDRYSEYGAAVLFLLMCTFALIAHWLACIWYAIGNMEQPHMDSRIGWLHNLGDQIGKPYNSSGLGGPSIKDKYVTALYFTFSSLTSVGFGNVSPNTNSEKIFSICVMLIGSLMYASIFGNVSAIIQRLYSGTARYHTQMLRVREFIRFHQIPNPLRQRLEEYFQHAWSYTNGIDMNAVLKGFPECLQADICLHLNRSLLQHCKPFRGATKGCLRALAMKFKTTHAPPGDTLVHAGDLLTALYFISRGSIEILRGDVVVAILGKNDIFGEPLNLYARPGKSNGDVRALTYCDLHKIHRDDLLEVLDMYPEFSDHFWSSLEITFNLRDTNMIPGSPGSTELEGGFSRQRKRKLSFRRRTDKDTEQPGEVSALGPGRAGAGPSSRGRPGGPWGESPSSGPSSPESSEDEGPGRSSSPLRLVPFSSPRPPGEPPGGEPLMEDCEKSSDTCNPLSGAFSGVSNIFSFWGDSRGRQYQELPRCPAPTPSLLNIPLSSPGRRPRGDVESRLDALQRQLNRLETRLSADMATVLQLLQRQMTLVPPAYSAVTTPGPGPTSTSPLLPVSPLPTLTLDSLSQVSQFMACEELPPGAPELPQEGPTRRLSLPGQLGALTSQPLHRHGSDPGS

[4] = system: H3K9me2 in HCT116 cells; assay: HCT116 H3K9me2 in-cell western assay; format: cell-based; conditions: Homo sapiens, HCT-116, 72 h, HCT116 cells, 72 hours incubation; read-out: H3K9me2 ICW IC50
Procedure, shortened: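 HCT116 cells (2,000/well) were treated for 72 h at 37° C, 5% CO2, with ten two-fold dilutions from 10 μM in duplicate. After PFA fixation, cells were stained overnight at 4° C with anti-H3K9me2, then with an 800 CW secondary plus DRAQ5.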

Compound | IC50 [1] [nM] | IC50 [2] [nM] | IC50 [4] [nM] | IC50 [3] [nM]
CNc1cc(C)nc(Nc2cc3c(c(C4=CCN(C)CCC4)c2)OCCO3)n1 [Compound 131, N4,6-dimethyl-N2-[5-(1-methyl-2,3,4,7-tetrahydroazepin-5-yl)-2,3-dihydro-1,4-benzodioxin-7-yl]pyrimidine-2,4-diamine] | 100 to 500 | < 100 | < 100 | 5000 to 10000
CNc1cc(C)nc(Nc2cc3c(c(C4=CCNCCC4)c2)OCO3)n1 [Compound 137, N4,6-dimethyl-N2-[7-(2,3,4,7-tetrahydro-1H-azepin-5-yl)-1,3-benzodioxol-5-yl]pyrimidine-2,4-diamine] | < 100 | < 100 | < 100 | 5000 to 10000
CNc1cc(C)nc(Nc2cc3c(c(C4=CCNCCC4)c2)OC(F)(F)O3)n1 [Compound 142, N2-[2,2-difluoro-7-(2,3,4,7-tetrahydro-1H-azepin-5-yl)-1,3-benzodioxol-5-yl]-N4,6-dimethyl-pyrimidine-2,4-diamine] | < 100 | < 100 | 100 to 500 | < 2000
CNc1cc(C)nc(Nc2cc3c(c(C4=CCNCCC4)c2)OCCO3)c1 [Compound 144, N4,6-dimethyl-N2-[5-(2,3,4,7-tetrahydro-1H-azepin-5-yl)-2,3-dihydro-1,4-benzodioxin-7-yl]pyridine-2,4-diamine] | 100 to 500 | 100 to 500 | 100 to 500 | > 10000
CNc1cc(C)nc(Nc2cc3c(c([C@H]4C[C@H]5CNC[C@H]5C4)c2)OCC3)n1 [Compound 157, N2-[7-(1,2,3,3a,4,5,6,6a-octahydrocyclopenta[c]pyrrol-5-yl)-2,3-dihydrobenzofuran-5-yl]-N4,6-dimethyl-pyrimidine-2,4-diamine] | 100 to 500 | 100 to 500 | 100 to 500 | > 10000
CNc1cc(C)nc(Nc2cc3c(c(C4=CCNCCC4)c2Cl)OCO3)n1 [Compound 160, N2-[6-chloro-7-(2,3,4,7-tetrahydro-1H-azepin-5-yl)-1,3-benzodioxol-5-yl]-N4,6-dimethyl-pyrimidine-2,4-diamine] | < 100 | < 100 | < 100 | 5000 to 10000
CNc1cc(C)nc(Nc2cc3c(c(C4=CCNCCC4)c2Cl)OCCO3)n1 [Compound 166, N2-[6-chloro-5-(2,3,4,7-tetrahydro-1H-azepin-5-yl)-2,3-dihydro-1,4-benzodioxin-7-yl]-N4,6-dimethyl-pyrimidine-2,4-diamine] | < 100 | < 100 | < 100 | < 2000

Second part, led by results:

IC50 [1] [nM] | IC50 [2] [nM] | IC50 [4] [nM] | Compound | IC50 [3] [nM]
< 100 | < 100 | < 100 | CNc1cc(C)nc(Nc2cc3c(c(C4=CCNCCC4)c2F)OCC32CC2)n1 [Compound 172] | 2000 to 5000
< 100 | < 100 | < 100 | CNc1cc(C)nc(Nc2cc3c(c(C4=CCNCCC4)c2Cl)OCCC3)n1 [Compound 175] | 5000 to 10000
< 100 | < 100 | < 100 | CNc1cc(C)nc(Nc2cc3c(c(C4=CCN(C)CCC4)c2Cl)OCCC3)n1 [Compound 176] | 2000 to 5000
< 100 | < 100 | < 100 | CNc1cc(C)nc(Nc2cc3c(c(C4=CCNCC(O)C4)c2F)OCC3)n1 (stereo not shown) [Compound 179, 5-[6-fluoro-5-[[4-methyl-6-(methylamino)pyrimidin-2-yl]amino]-2,3-dihydrobenzofuran-7-yl]-2,3,4,7-tetrahydro-1H-azepin-3-ol] | > 10000
< 100 | < 100 | < 100 | CNc1cc(C)nc(Nc2cc3c(c(C4=CCN(C)CC(O)C4)c2F)OCC3)n1 (stereo not shown) [Compound 180] | > 10000
100 to 500 | < 100 | < 100 | CNc1cc(C)nc(Nc2c(F)c3c(c(C4=CCNCCC4)c2F)OCC3)n1 [Compound 187] | > 10000
< 100 | < 100 | < 100 | CNc1cc(C)nc(Nc2cc3c(c(C4=CCNCCC4)c2C)OCC3)n1 [Compound 188, N4,6-dimethyl-N2-[6-methyl-7-(2,3,4,7-tetrahydro-1H-azepin-5-yl)-2,3-dihydrobenzofuran-5-yl]pyrimidine-2,4-diamine] | > 10000
< 100 | < 100 | < 100 | CNc1cc(C)nc(Nc2cc3c(c(C4=CCNCCC4)c2Cl)OCC3)n1 [Compound 189, N2-[6-chloro-7-(2,3,4,7-tetrahydro-1H-azepin-5-yl)-2,3-dihydrobenzofuran-5-yl]-N4,6-dimethyl-pyrimidine-2,4-diamine] | > 10000
< 100 | < 100 | < 100 | CNc1cc(C)nc(Nc2cc3c(c(C4=CCN(C)CCC4)c2F)OCCC3)n1 [Compound 190] | 5000 to 10000
